Data published in EP0207453B1 (priority 1985, dated 1987).
Converted amounts (≈) assume the structure as drawn.

The molecules below were run on Polio 2 (assay: microbe, parasite or virus in culture). Conditions: HeLa, read-out: MIC (Polio 2).
Format: cell-based, polioviruses
In the case of `Cc1cc(CCCCCOc2c(Cl)cc(-c3ccc(C)s3)cc2Cl)on1` [10(b), 5-{5-[2,6-Dichloro-4-(5-methyl-2-thienyl)phenoxy]pentyl}-3-methylisoxazole], the MIC is reported as 4.4 µg/mL (≈ 10.7 µM). `Cc1cc(CCCCCOc2c(Cl)cc(-c3nnn(C)n3)cc2Cl)on1` [23 (1st compd.), 5-{5-[2,6-dichloro-4-(2-methyl-2H-tetrazol-5-yl)phenoxy]pentyl}-3-methylisoxazole] showed an MIC of 2.9 µg/mL (≈ 7.32 µM). With `Cc1cc(CCCCCOc2c(Cl)cc(-c3cccs3)cc2Cl)on1` [Example 1(c), 5-{5-[2,6-Dichloro-4-(2-thienyl)phenoxy]pentyl}-3-methylisoxazole] the MIC was 2.5 µg/mL (≈ 6.31 µM). `Cc1cc(CCCCCOc2ccc(-c3cccs3)cc2)on1` [Example 2, 3-Methyl-5-{5-(4-(2-thienyl)phenoxy]pentyl}-isoxazole] gave an MIC of 0.02 µg/mL (≈ 0.0611 µM). Molecule `Cc1cc(CCCCCOc2ccc(-c3nc(C)c(C)s3)cc2)on1` [Example 3, 3-Methyl-5-{5-[4-(4,5-dimethyl-2-thiazolyl)phenoxy]-pentyl}isoxazole] has an MIC of 1 µg/mL (≈ 2.81 µM). `Cc1cc(CCCCCOc2ccc(-c3nc4ccccc4o3)cc2)on1` [Example 6, 5-{5-[4-(2-Benzoxazolyl)phenoxy]pentyl}-3-methylisoxazole] gave an MIC of 0.9 µg/mL (≈ 2.48 µM). `Cc1cc(CCCCCOc2ccc(-c3nccs3)cc2)on1` [Example 20, 3-Methyl-5-{5-[4-(2-thiazolyl)phenoxy]pentyl}-isoxazole] showed an MIC of 0.06 µg/mL (≈ 0.183 µM).
